# Key:
# NCC-HN1 cells = assay: Cell proliferation assay (CellTitre-Glo), TKI and EV co-treatment, NCC-HN1; type: cell-based, human
# Procedure: Extracellular vesicle (EV) collection and isolation were carried out as previously described*. Briefly, cells were grown in T-175 tissue culture flasks with conditioning medium (NCM). After 72 hours incubation, the NCM was collected and spun down at 1,200 rpm for 10 minutes to remove cell debris. The supernatant was then filtered through a 0.22 um filter (PES) and the filtrate was loaded into Amicon® Ultra-15 Centrifugal Filter Unit (Merck Millipore, Kenilworth, NJ). The medium was concentrated and subjected to a final wash with 1×PBS before reconstituting to 1/60 of the original volume. To reduce extracellular vesicle batch variation, every five extracellular vesicle batches were pooled into a single batch for analysis and treatment. *Reference: Rodrigues-Junior, D. M. et al. Circulating extracellular vesicle-associated TGFβ3 modulates response to cytotoxic therapy in head and neck squamous cell carcinoma. Carcinogenesis 1-13 (2019). doi:10.1093/carcin/bgz148
# Cells were seeded in 100 μl complete growth medium at a density of 1,000-3,000 cells/well in 96-well tissue culture plates. Cells were washed with 1×PBS to remove remaining medium residue prior treatment. […] Plates were incubated for 72 hours at 37° C. after which cell viability was assessed using CellTitre-Glo® Luminescent Assay according to the manufacturer's protocol (Promega, Madison, WI).
# [1] = Mouse body weight after afatinib and EV co-treatment; type: in vivo; conditions: daily oral afatinib with 72-hourly peri-tumoural EV injection
# From the text: Arrow indicates commencement of daily oral afatinib administration with 72-hourly peri-tumoural extracellular vesicle (EV) injection. This confirms that the therapy delivered to the mice in FIG. 25 had minimal side effects/toxicity during the course of the experiment.
# [2] = test system: NCC-HN1, NCC-HN120M and NCC-HN182M cells; assay: Cell proliferation assay and IC50 determination, TKI and EV co-treatment, HNSCC cell line panel; type: cell-based, human
# Procedure: To test the response of head and neck squamous cell carcinomas (HNSCC) cell lines to tyrosine kinase inhibitors (TKIs) in the presence of EGFR exosomal isoform D, three primary cell lines, namely NCC-HN1, NCC-HN120M and NCC-HN182M, were used. […] NCC-HN1, NCC-HN120M and NCC-HN182M cells were treated with eight tyrosine kinase inhibitors, each individually, in the presence of exosome (EV) derived from NCC-HN19 and NCC-HN137P cells.
# Cells were seeded in 100 μl complete growth medium at a density of 1,000-3,000 cells/well in 96-well tissue culture plates. […] Plates were incubated for 72 hours at 37° C. after which cell viability was assessed using CellTitre-Glo® Luminescent Assay according to the manufacturer's protocol (Promega, Madison, WI).
structure (smiles),measurement,setting,value
O=C1NC(=NS(=O)(=O)c2cccc3ccccc23)S/C1=C\c1ccc(Br)cc1 [PitStop2],effect on the sensitising effect of isoform D containing EVs,NCC-HN1 cells; 1 μM PS2 with 293T pBob-IsoD EV,reduces the sensitising effect of isoform D containing EVs
CN(C)C/C=C/C(=O)Nc1cc2c(Nc3ccc(F)c(Cl)c3)ncnc2cc1O[C@H]1CCOC1 [afatinib],mouse body weight,[1],no changes in mouse body weight
COc1cc2ncnc(Nc3ccc(F)c(Cl)c3)c2cc1NC(=O)/C=C/CN1CCCCC1 [dacomitinib],sensitivity of HNSCC cells to the TKI on co-treatment with exosomes containing overexpressed EGFR isoform D,"[2]; EV from 293T, FIG. 11H (NCC-HN1 and NCC-HN120M)",sensitized
same,sensitivity of TKI-resistant cells to the TKI on application of EVs from sensitive cells,"[2]; EV from HN19 and HN137P applied to HN1, HN120M, HN182M",sensitises these resistant cells
COc1cc2ncnc(Nc3ccc(F)c(Cl)c3)c2cc1OCCCN1CCOCC1 [gefitinib],response of cells to TKI without exosome,NCC-HN1 cells; no exosome treatment,normally resistant

# Reference: patent publication US12642838B2, “Method of modulating sensitivity to tyrosine kinase inhibitor” (SINGAPORE HEALTH SERVICES PTE LTD, priority 2020, dated 2026)
